Data on eleven compounds can be found in paper PMC6688182 (Peptides, 2017).

Several values for one entry are separate records, joined by “and”; a condition that tells them apart may be missing. Identical values can stand only once. Entries after “also recorded” stand apart in the source; their conditions may differ.

Assay [1] deals with Ang-(1–7)-dependent vasorelaxation of the isolated renal artery. In words: Effect of NOS, soluble guanylate cyclase and cyclooxygenase inhibitors on Ang-. Further details: species or system male Wistar rat. Conditions: for Effect of signaling inhibitor on Ang-(1–7)-induced vasorelaxation (in words) / Maximal vasorelaxation response to Ang-(1–7) in presence of L-NAME: L-NAME 10^−4 M; for Effect of signaling inhibitor on Ang-(1–7)-induced vasorelaxation (in words): indomethacin 10^−6 M; for Maximal vasorelaxation response to Ang-(1–7) in presence of L-NAME: N = 6.

The test system is the same in assay [2]. Briefly: Effect of bradykinin B2 receptor antagonist on Ang-. The arrangement: species or system male Wistar rat.
Another assay relates to SHR and WKY rats. Conditions: SHR and WKY rats following AT1 receptor blockade; ref [36]; cited from earlier work.
For another assay, the system named is bovine endothelial cells. The settings on record: cited from earlier work; for Effect on NO stimulation by Ang-(1–7) or AVE0991: bovine endothelial cells, ref [14],[37].
The subject of assay [3] is Ang-(1–7)-dependent vasorelaxation of the isolated renal artery. Briefly: Effect of angiotensin receptor antagonists on Ang-. The arrangement: species or system male Wistar rat. The settings on record: for Effect of receptor antagonist on Ang-(1–7)-induced vasorelaxation (in words): DALA, DPRO, Sarthran 10^−5 M, losartan, PD123319 10^−6 M, 20 min.
For a further assay, the system named is aortic segments. The settings on record: ref [28]; cited from earlier work.
A further assay deals with mesenteric artery. The settings on record: ref [21]; cited from earlier work.
The subject of a further assay is afferent arterioles. Conditions: ref [24]; cited from earlier work.
For assay [4], the system named is blood flow in multiple vascular beds. The settings on record: kidney, mesentery and skin; ref [27]; cited from earlier work.
Another assay relates to older WKY rats. The settings on record: 20 months, ref [5]; cited from earlier work.
The subject of assay [5] is Mas-related receptor MrgD. Conditions: aortic rings; ref [19]; cited from earlier work.
The subject of a further assay is mesenteric vessels. Conditions: rat mesentery; ref [20]; cited from earlier work.
In another assay the test system is AT2 and AT1 sites. The settings on record: ref [4],[30],[31],[35]; cited from earlier work.
Another assay has as its target T1, AT2 receptor (Rattus norvegicus, UniProt P35351).
T1 sequence (P35351 1-363): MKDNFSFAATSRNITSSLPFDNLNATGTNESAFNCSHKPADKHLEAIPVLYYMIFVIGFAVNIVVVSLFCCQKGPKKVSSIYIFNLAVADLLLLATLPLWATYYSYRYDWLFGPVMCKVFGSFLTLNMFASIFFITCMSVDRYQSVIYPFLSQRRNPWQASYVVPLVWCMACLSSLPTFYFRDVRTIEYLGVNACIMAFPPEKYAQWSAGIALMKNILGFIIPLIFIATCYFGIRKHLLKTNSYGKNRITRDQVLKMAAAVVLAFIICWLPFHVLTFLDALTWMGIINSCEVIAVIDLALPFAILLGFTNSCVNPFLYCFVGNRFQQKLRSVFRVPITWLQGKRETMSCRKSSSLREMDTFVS
In words: Competition of 125I-Sarthran binding in AR42J pancreatic cell membranes. Conditions: 0.2 nM 125I-Sarthran, antagonists up to 10^−5 M, n = 3.

Another assay has as its system blood pressure. Conditions: ref [1],[16],[17]; cited from earlier work.
Assay [6] relates to Ang-(1–7)-dependent vasorelaxation of the isolated renal artery. Briefly: Effect of K+ channel blockers on Ang-. The arrangement: species or system male Wistar rat. The settings on record: glibenclamide 10^−5 M; PE 3 × 10^−7 M; mean ± SEM, N = 8; * P < 0.05 vs. control.
Assay [7] deals with anti-nociceptive actions of Ang-(1–7). Conditions: ref [13]; cited from earlier work.

On to `O=c1onc2cnc3ccccc3n12` [ODQ, 1H-[1,2,4] oxadiazolo-quinoxalin], for which the “Maximal vasorelaxation response to Ang-(1–7) in presence of ODQ” value in [1] (ODQ 10^−5 M, Ang-(1–7) 10^−12 to 10^−6 M, PE 3 × 10^−7 M, mean ± SEM, N = 8, * P < 0.05 vs. control) is 10 ± 2% and 10.0 ± 2.1 ^* %.

Turning to HOE140, the “Effect of B2 antagonist on Ang-(1–7)-induced vasorelaxation (in words)” value in [2] (HOE140 5 × 10^−8 M, alone or with L-NAME 10^−4 M) is “markedly inhibited the vasorelaxation to Ang-(1–7); also recorded: significantly attenuated”. Besides, the “Maximal vasorelaxation response to Ang-(1–7) in presence of HOE140” value in assay [2] (HOE140 5 × 10^−8 M, PE 3 × 10^−7 M, mean ± SEM, N = 9, * P < 0.05 vs. control 42.4 ± 5.8) is listed as 14.0 ± 7.0 ^* %. For the same compound, in assay [2] (HOE140 10^−6 M as printed in the abstract, PE 3 × 10^−7 M, mean ± SEM), the “Ang-(1–7)-induced relaxation (maximal response) in presence of HOE140” value was determined as 14 ± 7%. Further, the “Effect on depressor effects of Ang-(1–7)” value with SHR and WKY rats is listed as “sensitive”. Further, the “Effect on NO stimulation by Ang-(1–7) or AVE0991” value (“Effect on NO stimulation” for short) in the assay on bovine endothelial cells is “blocked”.

In the case of “[D-Alanine^7]-Ang-(1–7) [D-Ala^7-Ang-(1–7)]”, the “Effect of receptor antagonist on Ang-(1–7)-induced vasorelaxation (in words)” value (“Effect of receptor antagonist” below) in assay [3] was “significantly inhibited; also recorded: essentially abolished”. In addition, the “Effect on Ang-(1–7)-dependent relaxation of aortic segments” value (shortened to “Effect on Ang-(1–7)-dependent relaxation”) in the assay on aortic segments is given as “abolished”. In the assay with mesenteric artery, the “Effect on vasorelaxation of the mesenteric artery by Ang-(1–7)” value (“Effect on vasorelaxation” below) is given as “blocked”. In addition, the “Effect on Ang-(1–7)-induced vasodilation of renal afferent arterioles” value (“Effect on Ang-(1–7)-induced vasodilation” for short) in the assay with afferent arterioles is listed as “abolished”. In addition, in assay [4], the “Effect on increase in blood flow by Ang-(1–7)” value is on record as “abolished”. Moreover, the “Effect on depressor actions of Ang-(1–7)” value with older WKY rats is given as “blocked the depressor actions of Ang-(1–7)”. Also, in assay [5], the “Effect on the effects of [Ala^1]-Ang-(1–7)” value (shortened to “Effect on the effects”) is “ineffective”. In the assay with bovine endothelial cells, the “Effect on NO stimulation” value is given as “blocked”. In addition, the “Effect on Ang-(1–7)-dependent dilation of mesenteric vessels” value (“Effect on Ang-(1–7)-dependent dilation” for short) with mesenteric vessels was “sensitivity to DALA blockade”. The “Action at AT2 and AT1 sites” value with AT2 and AT1 sites was “lack of actions at AT2 and AT1 sites”.

Regarding `Cc1cc(Cn2cnc3c2C[C@@H](C(=O)O)N(C(=O)C(c2ccccc2)c2ccccc2)C3)ccc1N(C)C` [PD123319], in assay [3], the “Effect of receptor antagonist” value is “significantly attenuated”. The “Competition of 125I-Sarthran binding (in words)” value at AT2 receptor is reported as “essentially abolished binding”. Besides, in the assay on aortic segments, the “Effect on Ang-(1–7)-dependent relaxation” value is “no inhibitory effect”. For the same compound, the “Effect on vasorelaxation” value with mesenteric artery is listed as “but not the AT2 antagonist PD123319”. In the assay on afferent arterioles, the “Effect on Ang-(1–7)-induced vasodilation” value is on record as “not reversed”. Besides, in the assay with SHR and WKY rats, the “Effect on depressor effects of Ang-(1–7)” value is “abolished”. Besides, the “Effect on depressor actions of Ang-(1–7)” value with older WKY rats was “blocked the depressor actions of Ang-(1–7)”. Also, the “Effect on the effects” value in assay [5] was “abolished the effects of [Ala^1]-Ang-(1–7)”. Also, the “Effect on NO stimulation” value in the assay with bovine endothelial cells was “blocked”.

`CCc1nc2c(C)cc(C)nc2n1Cc1ccc(-c2ccccc2-c2nn[nH]n2)cc1` [L158809]: the “Effect on Ang-(1–7)-induced vasodilation” value in the assay on afferent arterioles is given as “not reversed”.

As to `COc1ccc2c(c1)c(CC(=O)O)c(C)n2C(=O)c1ccc(Cl)cc1` [Indomethacin], in assay [1] (ODQ 10^−5 M), the “Effect of signaling inhibitor on Ang-(1–7)-induced vasorelaxation (in words)” value was “failed to block the Ang-(1–7) response”. The “Effect on Ang-(1–7)-dependent dilation” value in the assay on mesenteric vessels was “inhibition of the Ang-(1–7) vasorelaxant effects”. For the same compound, in the assay with blood pressure, the “Effect on blood pressure-lowering effects of Ang-(1–7)” value was “attenuated the blood pressure-lowering effects of the peptide”.

As for `CCCCc1nc(Cl)c(CO)n1Cc1ccc(-c2ccccc2-c2nn[nH]n2)cc1` [Losartan], in assay [3], the “Maximal vasorelaxation response to Ang-(1–7) in presence of antagonist” value is recorded as 22 ± 6% and the “Effect of receptor antagonist” value is given as “significantly attenuated”. Moreover, the “Effect on Ang-(1–7)-dependent relaxation” value in the assay on aortic segments is given as “no inhibitory effect”. In addition, in the assay on mesenteric artery, the “Effect on vasorelaxation” value is “blocked”.

Regarding `COC(=O)[C@@H](N)CCCNC(N)=N[N+](=O)[O-]` [L-NAME, nitro-l-arginine methyl ester], the “Maximal vasorelaxation response to Ang-(1–7) in presence of L-NAME” value was 13.4 ± 2.0 ^* % in [1] (Ang-(1–7) 10^−12 to 10^−6 M, PE 3 × 10^−7 M, mean ± SEM, * P < 0.05 vs. control) and 13 ± 2% in assay [1] (Ang-(1–7) 10^−12 to 10^−6 M, PE 3 × 10^−7 M, mean ± SEM, * P < 0.05 vs. control, listed as LNAME). Besides, the “Effect of signaling inhibitor on Ang-(1–7)-induced vasorelaxation (in words)” value in assay [1] (ODQ 10^−5 M) was “attenuated the Ang-(1–7) response”. In the assay with SHR and WKY rats, the “Effect on depressor effects of Ang-(1–7)” value is reported as “sensitive”. Also, the “Effect on NO stimulation” value with bovine endothelial cells was “blocked”. The “Effect on Ang-(1–7)-dependent dilation” value in the assay with mesenteric vessels is reported as “inhibition of the Ang-(1–7) vasorelaxant effects”.

For the compound `COc1ccc(Cl)cc1C(=O)NCCc1ccc(S(=O)(=O)NC(=O)NC2CCCCC2)cc1` [Glibenclamide], in [6], the “Maximal vasorelaxation response to Ang-(1–7) in presence of glibenclamide” value is recorded as 22.3 ± 2.3 ^* %. Besides, in assay [7], the “Effect on anti-nociceptive actions of Ang-(1–7)” value is given as “abolished the anti-nociceptive actions of Ang-(1–7)”.

For the compound “[D-Proline^7]-Ang-(1–7) [D-Pro^7-Ang-(1–7)]”, in [3], the “Effect of receptor antagonist” value is “significantly inhibited; also recorded: essentially abolished”. For the same compound, the “Effect on the effects” value in assay [5] is “abolished the effects of [Ala^1]-Ang-(1–7)”. In addition, the “Action at AT2 and AT1 sites” value with AT2 and AT1 sites is “lack of actions at AT2 and AT1 sites”.

As to `CCOc1nc2cccc(C(=O)O)c2n1Cc1ccc(-c2ccccc2-c2nnn[nH]2)cc1` [candesartan], the “Effect on vasorelaxation” value in the assay on mesenteric artery is on record as “blocked”. Also, in the assay on bovine endothelial cells (ref [14]), the “Effect on Ang-(1–7)-dependent NO release” value is on record as “attenuated Ang-(1–7)-dependent NO release”.
